Test results reported in US10358454B2, “Marinopyrrole derivatives and methods of making and using same” (H. LEE MOFFITT CANCER CENTER AND RESEARCH INSTITUTE, INC., priority 2014, dated 2019).
Entries after “also recorded” stand apart in the source; their conditions may differ. Like-named read-outs stand apart in the source and are kept apart here.

How the values were obtained:
[1] = biological target: Bcl-xL/Bim (Homo sapiens, UniProt Q07817); experiment: Bcl-xL/Bim ELISA (GST-Bcl-xL binding to biotinylated Bim BH3 peptide); settings: for fold more potent than (±)-1 (1) against Bcl-xL/Bim: relative to (±)-1
Method: (§1) ELISAs were performed using a modified version of a previously described procedure (Doi K et al. J. Biol. Chem. 2012, 287, 10224-10235). Briefly, 40 nM of biotinylated Bim BH3 peptide (Biomatik) in SuperBlock blocking buffer (Pierce) was incubated in high-binding capacity streptavidin-coated plates (Pierce) for 2 h. Compounds were diluted in 120 μl of PBS containing 10 nM of GST-Mcl-1 or GST-Bcl-xL in 1.5 mL tubes for 15 min. Wells were washed with wash buffer (PBS containing 0.05% Tween-20) and then 100 μL of the compound/GST-protein mixture was transferred to the wells. The plates were incubated for 2 h, and then the wells were washed with wash buffer. HRP-conjugated anti-GST antibody (Bethyl Laboratories) was diluted 1:2000 in SuperBlock and 100 μL was transferred to each well. The plate was incubated for 1 h, and then the wells were washed with wash buffer followed by PBS. 100 μL of SureBlue TMB Microwell Peroxidase Substrate (VWR) was added to each well and plates were developed for 5-10 min. 100 μL of 1 N HCl was added to each well to stop the reaction and absorbance was read at 450 nm using a μQuant plate reader (Bio-Tek).
(§2) ELISAs were performed using a similar procedure as previously described (Doi K, et al. J. Biol. Chem. 2012, 287, 10224-10235). Briefly, 40 nM of biotinylated Bim BH3 peptide (Biomatik) in SuperBlock blocking buffer (Pierce) was incubated in high-binding capacity streptavidin-coated plates (Pierce) for 2 h. Compounds were diluted in 120 μl of PBS containing 10 nM of GST-Mcl-1 or GST-Bcl-xL in 1.5 mL tubes for 15 min. Wells were washed with wash buffer (PBS containing 0.05% Tween-20) and then 100 μL of the compound/GST-protein mixture was transferred to the wells. The plates were incubated for 2 h, and then wells were washed with wash buffer. HRP-conjugated anti-GST antibody (Bethyl Laboratories) was diluted 1:2000 in SuperBlock and 100 μL was transferred to each well. The plate was incubated for 1 h, and then wells were washed with wash buffer followed by PBS. 100 μL of SureBlue TMB Microwell Peroxidase Substrate (VWR) was added to each well and plates were developed for 5-10 min. 100 μL of 1 N HCl was added to each well to stop the reaction and absorbance was read at 450 nm using μQuant plate reader (Bio-Tek).

[2] = biological target: Mcl-1/Bim (Homo sapiens, UniProt Q07820); experiment: Mcl-1/Bim ELISA (GST-Mcl-1 binding to biotinylated Bim BH3 peptide); settings: for selectivity profile Mcl-1 vs Bcl-xL in words: from Mcl-1/Bim and Bcl-xL/Bim ELISA; for fold more potent than (±)-1 (1) against Mcl-1/Bim: relative to (±)-1; for fold loss of potency against Mcl-1/Bim: 1-15 and 1-13 vs 1-10, 1-14 vs 1-11, 1-16 vs 1-15, 1-12 vs 1-9, 1-22, 1-21, 1-20 vs 1-23, 1-37 and N-Me methoxy analogue vs (±)-1; for selectivity for Mcl-1 over Bcl-xL (Mcl-1/Bim over Bcl-xL/Bim): ratio of ELISA IC50 values
Method: as §1, §2

[3] = Table 2-B, n ≥ 3 unless specified, read-out: Bcl-xL/Bim IC50 (average ± SEM)
[4] = Table 3-A structure I, Bcl-xL at 10 nM, n ≥ 3, read-out: Bcl-xL-Bim IC50 (average ± SEM)
[5] = Table 2-B, n ≥ 3, read-out: Mcl-1/Bim IC50 (average ± SEM)
[6] = Table 3-A structure I, Mcl-1 at 10 nM, n ≥ 3, read-out: Mcl-1-Bim IC50 (average ± SEM)
[7] = Table 1, Bcl-xL at 10 nM, n ≥ 3, read-out: Bcl-xL-Bim IC50 (average ± SEM)
[8] = Table 1, Mcl-1 at 10 nM, n ≥ 3, read-out: Mcl-1-Bim IC50 (average ± SEM)
[9] = Table 3-C structure IV, n ≥ 3 (IV-1: n = 2), read-out: Bcl-xL-Bim IC50 (average ± SEM)
[10] = Table 3-C structure IV, n ≥ 3, read-out: Mcl-1-Bim IC50 (average ± SEM)
[11] = read-out: IC50 to inhibit the binding of Mcl-1 to Bim
[12] = read-out: IC50 to inhibit Bcl-xL/Bim binding

Chain of Bcl-xL/Bim (Q07817 whole entry): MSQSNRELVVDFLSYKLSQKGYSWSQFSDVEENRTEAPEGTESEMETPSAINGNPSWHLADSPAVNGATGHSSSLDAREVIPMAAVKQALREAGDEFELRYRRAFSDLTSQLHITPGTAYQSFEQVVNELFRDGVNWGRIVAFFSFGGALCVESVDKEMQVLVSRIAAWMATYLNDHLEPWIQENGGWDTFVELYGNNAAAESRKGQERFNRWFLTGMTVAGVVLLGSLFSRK
Chain of Mcl-1/Bim (Q07820 whole entry): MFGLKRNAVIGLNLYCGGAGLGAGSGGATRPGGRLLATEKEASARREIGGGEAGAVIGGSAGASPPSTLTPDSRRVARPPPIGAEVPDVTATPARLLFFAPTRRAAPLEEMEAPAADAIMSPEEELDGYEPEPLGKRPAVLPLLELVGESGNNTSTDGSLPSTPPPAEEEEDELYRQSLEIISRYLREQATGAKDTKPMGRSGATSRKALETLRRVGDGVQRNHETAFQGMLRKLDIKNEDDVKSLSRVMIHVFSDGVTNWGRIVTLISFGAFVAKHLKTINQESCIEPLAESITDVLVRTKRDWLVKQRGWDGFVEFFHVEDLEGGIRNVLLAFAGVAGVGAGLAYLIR

O=C(c1ccc(O)cc1O)c1[nH]c(Cl)c(Cl)c1-n1c(C(=O)c2ccc(O)cc2O)cc(Cl)c1Cl [Compound 1-7]
IC50 [1, 3]: > 50 µM | IC50 [1, 4]: > 50 µM | activity against Mcl-1/Bim in words [2]: lost potency

Cc1cc(O)c(C(=O)c2[nH]c(Cl)c(Cl)c2-n2c(C(=O)c3cc(Cl)c(C)cc3O)cc(Cl)c2Cl)cc1Cl [Compound 1-2, (4,4′,5,5′-Tetrachloro-1′H-1,3′-bipyrrole-2,2′-diyl)bis((5-chloro-2-hydroxy-4-methylphenyl)methanone)]
IC50 [1, 3]: 2.5 ± 0.4 µM | IC50 [1, 4]: 2.5 ± 0.4 µM | IC50 [2, 5]: 2.6 ± 0.6 µM | IC50 [2, 6]: 2.6 ± 0.6 µM | selectivity profile Mcl-1 vs Bcl-xL in words [2]: dual Mcl-1 and Bcl-XL antagonists

O=C1c2ccc(OS(=O)(=O)C(F)(F)F)cc2Oc2c(Cl)cc(C(=O)c3ccc(OS(=O)(=O)C(F)(F)F)cc3O)n2-c2c1[nH]c(Cl)c2Cl [IV-1, 3-Hydroxy-4-(2,3,7-trichloro-13-oxo-10-(((trifluoromethyl)sulfonyl)oxy)-1,13 dihydrobenzo[g]di-pyrrolo[2,1-b:3′,2′-d][1,3]oxazocine-5-carbonyl)phenyl trifluoromethanesulfonate]
IC50 [1, 7]: 2.3 ± 1.1 µM | fold more potent than (±)-1 (1) against Bcl-xL/Bim [1]: seven-fold | IC50 [2, 8]: 1.4 ± 0.3 µM | fold more potent than (±)-1 (1) against Mcl-1/Bim [2]: six

COC(=O)c1ccc(C(=O)c2cc(Cl)c3n2-c2c([nH]c(Cl)c2Cl)C(=O)c2ccc(C(=O)OC)cc2O3)c(O)c1 [IV-3, Methyl-2,3,7-trichloro-5-(2-hydroxy-4-(methoxycarbonyl)benzoyl)-13-oxo-1,13-dihydrobenzo[g]-dipyrrolo[2,1-b:3′,2′-d][1,3]oxazocine-10-carboxylate]
activity against Bcl-xL/Bim in words [1]: slight increase in potency | IC50 [1, 7]: 3.4 ± 0.9 µM | IC50 [1, 3]: 10.1 ± 2.2 µM | IC50 [1, 9]: 10.1 ± 2.2 µM | fold more potent than (±)-1 (1) against Bcl-xL/Bim [1]: seven-fold | IC50 [2, 8]: 4.3 ± 1.5 µM | IC50 [2, 5]: 4.1 ± 1.4 µM | IC50 [2, 10]: 4.1 ± 1.4 µM | fold more potent than (±)-1 (1) against Mcl-1/Bim [2]: two-fold

CCOC(=O)CS(=O)(=O)c1ccc(C(=O)c2[nH]c(Cl)c(Cl)c2-n2c(C(=O)c3ccc(S(=O)(=O)CC(=O)OCC)cc3O)cc(Cl)c2Cl)c(O)c1 [Compound 1-12]
IC50 [1, 3]: > 50 µM | fold loss of potency against Mcl-1/Bim [2]: 21 fold | IC50 [2, 5]: 37.3 ± 3.1 µM

O=C(c1cc(Cl)c(O)cc1O)c1[nH]c(Cl)c(Cl)c1-n1c(C(=O)c2cc(Cl)c(O)cc2O)cc(Cl)c1Cl [Compound 1-8]
IC50 [1, 3]: > 50 µM | IC50 [1, 4]: > 50 µM

CCOC(=O)Cn1cc(-c2ccc(C(=O)c3[nH]c(Cl)c(Cl)c3-n3c(C(=O)c4ccc(-c5cn(CC(=O)OCC)nn5)cc4O)cc(Cl)c3Cl)c(O)c2)nn1 [Compound 1-24, Diethyl 2,2′-(4,4′-((4,4′,5,5′-tetrachloro-1′H-1,3′-bipyrrole-2,2′-dicarbonyl)bis(3-hydroxy-4,1-phenylene))bis(1H-1,2,3-triazole-4,1-diyl))diacetate]
activity against Bcl-xL/Bim in words [1]: not tolerated; also recorded: not active | IC50 ([1]; Table 2-A, n ≥ 3, read-out: Bcl-xL/Bim IC50 (average ± SEM)): > 100 µM | IC50 ([1]; Table 3-B structure II, n ≥ 3, read-out: Bcl-xL-Bim IC50 (average ± SEM)): > 100 µM | IC50 ([2]; Table 2-A, n ≥ 3, read-out: Mcl-1/Bim IC50 (average ± SEM)): 18.4 ± 0.3 µM | IC50 ([2]; Table 3-B structure II, n ≥ 3, read-out: Mcl-1-Bim IC50 (average ± SEM)): 18.4 ± 0.3 µM | selectivity for Mcl-1 over Bcl-xL (Mcl-1/Bim over Bcl-xL/Bim) [2]: 5.4 fold | IC50 [2, 11]: 18.4 µM

O=C(O)CS(=O)(=O)c1ccc(C(=O)c2[nH]c(Cl)c(Cl)c2-n2c(C(=O)c3ccc(S(=O)(=O)CC(=O)O)cc3O)cc(Cl)c2Cl)c(O)c1 [Compound 1-16]
activity against Mcl-1/Bim in words [2]: lost potency | fold loss of potency against Mcl-1/Bim [2]: 10 fold | IC50 [2, 6]: 63 ± 5.4 µM

COc1ccc(CSc2ccc(C(=O)c3[nH]c(Cl)c(Cl)c3-n3c(C(=O)c4ccc(SCc5ccc(OC)cc5)cc4O)cc(Cl)c3Cl)c(O)c2)cc1 [Compound 1-11]
IC50 [1, 4]: 0.6 ± 0.1 µM | IC50 [2, 5]: 0.7 ± 0.1 µM

O=C(c1ccc(SCc2ccccc2)cc1O)c1[nH]c(Cl)c(Cl)c1-n1c(C(=O)c2ccc(SCc3ccccc3)cc2O)cc(Cl)c1Cl [Compound 1-10, (4,4′,5,5′-Tetrachloro-1′H-1,3′-bipyrrole-2,2′-diyl)bis(((2-hydroxy-4-benzylthio)phenyl)methanone)]
IC50 [1, 12]: 0.6 µM | IC50 [2, 6]: 0.7 ± 0.2 µM | selectivity profile Mcl-1 vs Bcl-xL in words [2]: most potent dual Mcl-1 and Bcl-xL antagonists

O=C1c2ccc(P(=O)(O)O)cc2Oc2c(Cl)cc(C(=O)c3ccc(P(=O)(O)O)cc3O)n2-c2c1[nH]c(Cl)c2Cl [IV-6, 3-Hydroxy-4-(2,3,7-trichloro-13-oxo-10-phosphoryl-1,13-dihydrobenzo[g]dipyrrolo[2,1-b:3′,2′-d][1,3]oxazocine-5-carbonyl) phosphonic acid]
IC50 [1, 7]: > 100 µM | IC50 [1, 12]: > 100 µM | IC50 [2, 8]: > 100 µM | IC50 [2, 11]: > 100 µM

O=C(O)c1ccc(C(=O)c2cc(Cl)c3n2-c2c([nH]c(Cl)c2Cl)C(=O)c2ccc(C(=O)O)cc2O3)c(O)c1 [IV-4, 5-(4-Carboxy-2-hydroxybenzoyl)-2,3,7-trichloro-13-oxo-1,13-dihydrobenzo[g]dipyrrolo[2,1-b:3′,2′-d][1,3]oxazocine-10-carboxylic acid]
IC50 [1, 7]: > 100 µM | IC50 [1, 3]: 18.3 ± 3 µM | IC50 [1, 9]: 18.3 ± 3 µM | IC50 [2, 8]: 66.6 ± 2.6 µM | IC50 [2, 5]: 3.9 ± 1.1 µM | IC50 [2, 10]: 3.9 ± 1.1 µM

COc1ccc(CS(=O)(=O)c2ccc(C(=O)c3[nH]c(Cl)c(Cl)c3-n3c(C(=O)c4ccc(S(=O)(=O)Cc5ccc(OC)cc5)cc4O)cc(Cl)c3Cl)c(O)c2)cc1 [Compound 1-14]
fold loss of potency against Mcl-1/Bim [2]: 25 fold | IC50 [2, 5]: 17.4 ± 3.1 µM

O=C(c1ccc(C(F)(F)F)cc1O)c1[nH]c(Cl)c(Cl)c1-n1c(C(=O)c2ccc(C(F)(F)F)cc2O)cc(Cl)c1Cl [Compound 1-1]
selectivity profile Mcl-1 vs Bcl-xL in words [2]: dual Mcl-1 and Bcl-XL antagonists

O=C(O)CSc1ccc(C(=O)c2[nH]c(Cl)c(Cl)c2-n2c(C(=O)c3ccc(SCC(=O)O)cc3O)cc(Cl)c2Cl)c(O)c1 [Compound 1-15]
IC50 [1, 3]: > 100 µM | IC50 [1, 4]: > 100 µM | IC50 [1, 12]: > 100 µM | fold loss of potency against Mcl-1/Bim [2]: 8.7 fold | IC50 [2, 5]: 6.1 ± 1.3 µM | IC50 [2, 6]: 6.1 ± 1.3 µM | selectivity profile Mcl-1 vs Bcl-xL in words [2]: much more selective for Mcl-1 over Bcl-xL | selectivity for Mcl-1 over Bcl-xL (Mcl-1/Bim over Bcl-xL/Bim) [2]: over 16 fold | IC50 ([2]; read-out: IC50 to disrupt Mcl-1/Bim binding): 6.1 µM

CC(C)(C)OC(=O)Cn1cc(-c2ccc(C(=O)c3[nH]c(Cl)c(Cl)c3-n3c(C(=O)c4ccc(-c5cn(CC(=O)OC(C)(C)C)nn5)cc4O)cc(Cl)c3Cl)c(O)c2)nn1 [Compound 1-25, Di-tert-butyl 2,2′-(4,4′-((4,4′,5,5′-tetrachloro-1′H-1,3′-bipyrrole-2,2′-dicarbonyl)bis(3-hydroxy-4,1-phenylene))bis(1H-1,2,3-triazole-4,1-diyl))diacetate]
selectivity for Mcl-1 over Bcl-xL (Mcl-1/Bim over Bcl-xL/Bim) [2]: 1.6 fold

CCOC(=O)CSc1ccc(C(=O)c2[nH]c(Cl)c(Cl)c2-n2c(C(=O)c3ccc(SCC(=O)OCC)cc3O)cc(Cl)c2Cl)c(O)c1 [Compound 1-9]
fold enhancement of potency against Bcl-xL/Bim ([1]; 1-9 vs 1-15): over 83 fold | IC50 [1, 4]: 1.2 ± 0.2 µM | fold improvement of potency against Mcl-1/Bim ([2]; 1-9 vs 1-15): 3.4 fold | IC50 [2, 6]: 1.8 ± 0.3 µM

CC(C)(C)OC(=O)Cn1cc(-c2cc(O)c(C(=O)c3[nH]c(Cl)c(Cl)c3-n3c(C(=O)c4cc(Cl)c(-c5cn(CC(=O)OC(C)(C)C)nn5)cc4O)cc(Cl)c3Cl)cc2Cl)nn1 [Compound 1-18, Di-tert-butyl 2,2′-(4,4′-((4,4′,5,5′-tetrachloro-1′H-1,3′-bipyrrole-2,2′-dicarbonyl)bis(2-chloro-5-hydroxy-4,1-phenylene))bis(1H-1,2,3-triazole-4,1-diyl))diacetate]
selectivity for Mcl-1 over Bcl-xL (Mcl-1/Bim over Bcl-xL/Bim) [2]: 8.3 fold
